Reference: patent publication US20020051978A1, “Methods and compositions for the identification, assessment, prevention and therapy of human cancers” (priority 2000, published 2002)
Several values for one entry are separate records, joined by “and”; a condition that tells them apart may be missing. Identical values can stand only once. Counter-ions that a name gives are not always drawn. Like-named read-outs stand apart in the source and are kept apart here.

Test system: 60 cancer cell lines (NCI 60 cancer cell line series)
Assay: NCI-DTP in vitro cancer screen, sulforhodamine B (SRB) growth inhibition, 48 hour exposure
Assay type: cell-based, human
Design: key to sensitivity class Ovarian OVCAR-8 CL6005 / sensitivity class Ovarian SK-OV-3 CL6011 / sensitivity class Prostate DU-145 CL11003 / sensitivity class NSCLC NCI-H522 CL1003 / sensitivity class Ovarian IGROV1 CL6010 / sensitivity class Ovarian OVCAR-4 CL6002 / sensitivity class Prostate PC-3(I) CL11001 / sensitivity class Renal A498 CL9013 / sensitivity class Renal SN12C CL9008: sensitivity class: 1 = Low, 2 = Medium, 3 = High
Procedure: Cancer Cell Line Preparation. Sixty cancer cell lines were obtained from the National Cancer Institute Developmental Therapeutics Program (NCI-DTP). Procedures for growing cells and testing compounds have been described previously (Scudiero et al., Cancer Res. 1988, 48:4827-4833; Stinson et al., Anticancer Res.; Myers et al., Electrophoresis 1997, 18:647-653). Cells are plated on day 0 at a density individualized for each cell line so that they will generally be sub-confluent at the end of the assay period. On day 1, a compound is added in the format for a duplicate-well, 5-dose, ten-fold interval dose response study.
No-drug, no-cell and no-growth controls are included. On day 3 the cells are processed for staining with sulforhodamine B (SRB), which reflects the amount of cell mass present at the end of a 48 hour exposure to the test agent. From dose response curves based on the SRB data, various parameters can be determined. The one used in the present study is the G15o, defined as the concentration of compound required to inhibit growth of the cell line by 50%. More precisely, the quantity used in the calculation to be described is the potency measure -log{GI50}.
Activity database (A). Table IA, consisting of the growth inhibition (GI5o) values for the 60 cell lines and 24 compounds, was created from the NCI-DTP in vitro cancer screen database. This subset of compounds was selected from the larger 23,000 compound database available from the DTP. The compounds were selected on the basis of their known mechanism of action and chemical structure. The average potency—log{GI50} was extracted from the comma-delimited text files available through the Web at http://www.nci.nih.gov/intra/lmp/jnwbio.htmrl. Subsequently, these log{GI5o} values were inspected manually and classified as indicating either Low, Medium or High sensitivity to each compound.

For `CC[C@]1(O)C[C@@H]2CN(CCc3c([nH]c4ccccc34)[C@@](C(=O)OC)(c3cc4c(cc3OC)N(C)[C@H]3[C@@](O)(C(=O)OC)[C@H](OC(C)=O)[C@]5(CC)C=CCN6CC[C@]43[C@@H]65)C2)C1.O=S(=O)(O)O` [Vinbiastine sulfate], the “classification of cell line as Low(1), Medium(2) or High(3) sensitivity to compound” value (shortened to “classification of cell line”) was 2 and 3 and 1.
In the case of `CC[C@]1(O)C[C@@H]2CN(CCc3c([nH]c4ccccc34)[C@@](C(=O)OC)(c3cc4c(cc3OC)N(C)[C@H]3[C@@](O)(C(=O)OC)[C@H](OC(C)=O)[C@]5(CC)C=CCN6CC[C@]43[C@@H]65)C2)C1` [Vinblastine sulfate], the “classification of cell line” value (CNS SF-539 CL12016) is reported as 2, the “classification of cell line” value (CNS SNB-19 (CL12002)) is reported as 2 and the “classification of cell line” value (CNS U251(I) CL12009) is reported as 2. The “classification of cell line” value (Colon HCC-2998 (CL4002)) was 2, the “classification of cell line” value (Colon HCT-15 CL4015) was 1 and the “classification of cell line” value (Colon KM12 (CL4017)) was 2. The “classification of cell line” value (Colon SW-620 (CL4009)) was 2, the “classification of cell line” value (Leukemia CCRF-CEM(I) (CL7003)) was 2 and the “classification of cell line” value (Leukemia HL-60(I) (CL7008)) was 3. The “classification of cell line” value (Leukemia MOLT-4 (CL7006)) was 2, the “classification of cell line” value (Leukemia SR CL7019) was 3 and the “classification of cell line” value (Melanoma M14 (CL10014)) was 2. The “classification of cell line” value (Melanoma MALME-3M CL10002) was 2, the “classification of cell line” value (Melanoma SK-MEL-2 (CL10005)) was 2 and the “classification of cell line” value (Melanoma SK-MEL-5 (CL10007)) was 3. For the same molecule, the “classification of cell line” value (Melanoma SK-MEL-28 (CL10008)) was 2, the “classification of cell line” value (Melanoma UACC-62 (CL10020)) was 3 and the “classification of cell line” value (NSCLC A549/ATCC (CL1004)) was 2. The “classification of cell line” value (NSCLC EKVX (CL1008)) was 1, the “classification of cell line” value (NSCLC HOP-62 (CL1026)) was 2 and the “classification of cell line” value (NSCLC HOP-92 (CL1029)) was 2. The “classification of cell line” value (NSCLC NCI-H226 CL1013) was 2, the “sensitivity class NSCLC NCI-H23(I) CL1001” value (cell line NSCLC NCI-H23(I), CL1001) was 2 and the “sensitivity class NSCLC NCI-H332M CL1017” value (cell line NSCLC NCI-H332M, CL1017) was 2. For the same molecule, the “sensitivity class NSCLC NCI-H460 CL1021” value (cell line NSCLC NCI-H460, CL1021) was 2, the “sensitivity class NSCLC NCI-H522 CL1003” value (cell line NSCLC NCI-H522, CL1003) was 3 and the “sensitivity class Ovarian IGROV1 CL6010” value (cell line Ovarian IGROV1, CL6010) was 2. The “sensitivity class Ovarian OVCAR-3 CL6001” value (cell line Ovarian OVCAR-3, CL6001) was 3, the “sensitivity class Ovarian OVCAR-8 CL6005” value (cell line Ovarian OVCAR-8, CL6005) was 2 and the “sensitivity class Ovarian SK-OV-3 CL6011” value (cell line Ovarian SK-OV-3, CL6011) was 2. For the same molecule, the “sensitivity class Renal 786-O CL9018” value (cell line Renal 786-O, CL9018) was 2, the “sensitivity class Renal CAKI-1 CL9015” value (cell line Renal CAKI-1, CL9015) was 2 and the “sensitivity class Renal RXF-393 CL9016” value (cell line Renal RXF-393, CL9016) was 2. The “sensitivity class Renal SN12C CL9008” value (cell line Renal SN12C, CL9008) was 2, the “sensitivity class Renal TK10 CL9024” value (cell line Renal TK10, CL9024) was 1 and the “sensitivity class Renal UO-31 CL9004” value (cell line Renal UO-31, CL9004) was 1.
In the case of `CC[C@]1(O)C[C@@H]2CN(CCc3c([nH]c4ccccc34)[C@@](C(=O)OC)(c3cc4c(cc3OC)N(C)[C@H]3[C@@](O)(C(=O)OC)[C@H](OC(C)=O)[C@]5(CC)C=CCN6CC[C@]43[C@@H]65)C2)C1` [Vinblastinesulfate], the “classification of cell line” value (Breast BT-549 (CL5013)) is reported as 3, the “classification of cell line” value (Breast HS-578T CL5006) is reported as 3 and the “classification of cell line” value (Breast MCF7(I) (CL5001)) is reported as 3. For the same molecule, the “classification of cell line” value (Breast MCF7/ADRr (CL5002)) was 1, the “classification of cell line” value (Breast MDA-MB-231 CL5005) was 2 and the “classification of cell line” value (Breast MDA-MB-435 (CL5011)) was 3. The “classification of cell line” value (Breast MDA-N CL5012) was 3, the “classification of cell line” value (Breast T-47D (CL5014)) was 3 and the “classification of cell line” value (CNS SF-268 CL12014) was 2. For the same molecule, the “classification of cell line” value (CNS SF-295 CL12015) was 2.
